Read-outs that look alike come from different tables or passages of the source.
Assays:
adjuvant arthritis = assay: chronic adjuvant arthritis test in rats (Table I); format: in vivo, male Charles River Lewis rats; details: for change in vivo at 95 µmol/kg / change in vivo at 3 µmol/kg: Rattus norvegicus, 552 h; for change in vivo at 3 µmol/kg: oral 3 μMol/Kg
Protocol: That the compounds of this invention are effective anti-arthritic agents can be seen from the results obtained when these compounds are administered to rats in accordance with the chronic adjuvant arthritis test system disclosed in Billingham and Davies "Handbook of Experimental Pharmacology" (editors J.R. Vane and S.H. Ferreira) Vol. 50/II, pg. 108-144, Springer-Verlag, Berlin, 1979).
In this procedure, adjuvant arthritis was induced by the subplantar injection on day o of 0.05 ml of adjuvant [a suspension of heat-killed, dessicated Mycobacterium butyricum, 0.5% (w/v), in heavy mineral oil containing 0.2% digitonin] into the right hind paw of male Charles River Lewis rats (120-140g) that were housed individually and given food and water ad lib. paw volumes (both hind paws) were measured immediately after injection of the adjuvant. paw Volumes were also measured, to follow the development of inflammation-induced swelling in the arthritic paws, at intervals of 3 to 7 days by immersion of the paw to the level of the lateral malleolus in a mercury plethysmograph.
Drugs were administered once a day (starting on the day of adjuvant injection) by […] using Tween 80 (polyoxyethylene sorbitan mono-oleate) at a dose of 0.25 ml/100 g body Weight as the vehicle. Arthritic control rats received daily doses of the vehicle only. On day 23-25, the rats were sacrificed, plasma collected and plasma fibrinogen levels determined (ammonium sulfate turbidimetric method) as described by Exner et al., Amer. J. Clin Path, 71:521-527 (1979). Anti-inflammatory activity of the test drugs were determined by comparing the extent of paw swelling (paw volume on a particular day, i.e. day four to day twenty-five, minus the paw volume on day 0) in drug-treated arthritic rats with the extent of paw swelling in the vehicle-treated arthritic rats. Drug induced decreases in the level of plasma fibrinogen. an acute phase protein that is elevated in the plasma of rats with adjuvant-induced arthritis, were also used to quantitate the anti-inflammatory activity.

[1] = system: type II collagen arthritis; assay: established type II collagen arthritis (Table IV); format: in vivo, male and female Alderley Park Strain 1 rats; details: 100 mg.kg^-1 p.o.; male and female rats
Protocol: In all tests, Compound A and the other retinoids tested concurrently were formulated in arachis oil containing 0.05% propylgallate as anti-oxidant. The dose volumes used were 5 ml.kg^-1 for rats and 10 ml.kg^-1 for mice. Controls were dosed with the appropriate volume of arachis oil vehicle.
Animals -- Male and female Alderley Park Strain 1 rats.
Materials -- Type 2 collagen (prepared from bovine nasal septum cartilage), Freunds incomplete adjuvant (Difco).
Method -- Rats were sensitized to type 2 collagen by injecting them intradermally with 1 ml. of a water in oil emulsion consisting of equal parts of a 1 mg.ml^-1 solution of type 2 collagen in 0.45M NaCl, 0.02M Tris, PH 7.4 and Freunds incomplete adjuvant. Rats developing arthritis were allocated on day 15 post sensitization to a control arachis oil treated group (6 male, 4 female) or to the Compound A treated group (6 male, 5 female). Hind paw volume measurements were taken to ensure even distribution of rats between groups. An overnight collection of urine was made on days 15/16 and dosing commenced on day 16. […] Compound A was dosed at 100 mg.kg^-1 p.o. On days 19/20 a second overnight collection of urine was made. […] On day 20 a second hind paw measurement was taken. Rats were then anaesthetised with sodium pentobarbitone, bled, killed and X-rays taken of hind and forepaws. Rats were dosed on days 16-19 inclusive (4 doses).

[2] = system: delayed hypersensitivity to methylated bovine serum albumin (MBSA); assay: MBSA delayed hypersensitivity test (Table II)
Protocol: The dose volumes used were 5 ml.kg^-1 for rats and 10 ml.kg^-1 for mice. Controls were dosed with the appropriate volume of arachis oil vehicle.
Animals -- Male and female MFI mice substrain E33. Initial weight approximately 25 gm.
Materials -- Methylated bovine serum albumin (MBSA) (Sigma) Freunds complete adjuvant (Difco)
Method -- Groups of 10 mice were sensitized (day 0) by injecting intradermally at two abdominal. sites 0.05 ml. of a water in oil emulsion of MBSA and Freunds complete adjuvant. On day 9 the mice were challenged by injecting 20 l of a 1% MBSA solution to one paw and 20 l of water into the contralateral paw. Paw volumes were measured 24 hours later by mercury displacement plethysmography. The means percentage increase in paw volume of the MBSA-challenged paw compared with the water challenged paw was calculated for each treatment group. Dosing with vehicle and retinold commenced on day 0 and finished on day 9.

[3] = system: 4 hr carrageenan pleurisy; assay: 4 hr carrageenan pleurisy, non-immune inflammation (Table V); format: in vivo, female Alderley Park Strain 1 rats; details: 10 days
Protocol: Animals -- Female Alderley Park Strain 1 rats weighing 170-205 g. at the start of the experiment were used.
Materials -- Lambda -carrageenan. Prepared as a solution in saline and sterilized by autoclaving.
Method -- Compound A was administered orally to groups of 8 rats once daily for 10 days at doses of 10, 30 and 100 mg.kg^-1. Control animals received the vehicle. One hour after the last dose the animals were anesthetised with methohexitone (Brietal, 50 mg.kg-1) and 0.2 ml of 1% lambda carrageenan was injected into the pleural cavity. Four hours later the animals were killed with an overdose of pentobarbitone (Sagatal), the pleural exudate was collected and the pleural cavity was washed out with 2 ml of phosphate-buffered saline (PB$-A, Oxoid). The exudate volume was recorded and cell counts were determined using an automatic cell counter (Coulter). Differential cell counts were performed on exudate smears stained with Giemsa stain in order to determine separately the numbers of polymorphonuclear leucocytes (PMN) and mononuclear cells (MN).
Immediately after recovery of the pleural exudates the tibiae of the animals were excised and their breaking strains were determined.
The body weights of the animals were recorded daily. Statistical analyses were performed using Student's two-tailed t test.
In the following table the dose is in mg per kg per day.

[4] = system: adjuvant arthritis in the rat; assay: developing adjuvant arthritis in the rat (Table III); format: in vivo, AHH/R female rats (PVG derived); details: 15 mg.kg^-1 p.o.
Protocol: Animals--AHH/R Female rats (PVG derived with an initial weight range of 110 to 140 g. were used.
Materials--Adjuvant for injection. An homogenized suspension of heat killed M. tuberculosis (Human strains C, DT and PN), 5 mg.Ml^-1 in liquid Paraffin was Prepared.
Method Rats were randomly split into groups of five and adjuvant arthritis was induced by the sub-plantar injection of 0.1 ml of adjuvant susPension into the right hind paw of each rat. Test compounds were administered by intubation each morning commencing the day of adjuvant injection. Two groups of control rats were dosed with the vehicle as was a group of three normal rats included for comparative purposes. Dosing was carried out daily until the end of the test on day 15 except for the first weekend (days 5 & 6). Treatment groups are shown in Table III and include etretinate as standard retinoid.
Measurements of right hind paw volume were made initially and on days 2 and 4 after and adjufant injection (primary phase). Right and left hind paw volume were then measured on day 8 and every two or three days until the end of the experiment on day 15 (secondary phase). At this time the mobility of each ankle joint and the
incidence and severity of secondary lesions on nose, ears, forepaws, left hind paw and tail were also assessed in terms of degrees of flexion possible and by using an arbitrary scoring system, respectively.
The time course curves for the injected paws were integrated from days 0 to 4 to reflect primary swelling and from days 8 to 15 (secondary swelling). The secondary swelling in the non-injected paw was integrated similarly from days 8 to 15. Calculations were carried out using a specific computer program which computed mean ± se for each integrated area. The significance of differences from controls was determined by Student s t test (2 tailed) and percentage reductions from control areas were calculated. Percentage improvements in joint mobility and percentage reductions in lesion score were also determined. In the latter case the Wilcoxon rank sum test (2 tailed) was used to express the difference from the control score using raw data. Mean body weight change in each group was recorded.

SMILES: CCCCCCCCCOc1ccc(OC)cc1/C=C/C(C)=C/C=C/C(C)=C/C(=O)O
- Body Weight Gain (adjuvant arthritis; oral 75 μMol/Kg): +27 g

SMILES: CCCCCCCCNc1ccccc1/C=C/C(C)=C/C=C/C(C)=C/C(=O)OCC
- Body Weight Gain (adjuvant arthritis; oral 75 μMol/Kg): +24 g

SMILES: CCCCCCCCCOc1cccc(Cl)c1/C=C/C(C)=C/C=C/C(C)=C/C(=O)O
- Body Weight Gain (adjuvant arthritis; oral 75 μMol/Kg): +35 g

SMILES: CC(/C=C/c1ccccc1OCCCCCCCCO)=C\C=C\C(C)=C\C(=O)O
- change in vivo at 95 µmol/kg (adjuvant arthritis; oral 95 μMol/Kg, read-out: % Reduction in Paw Volume On day 23, Left): -49%
- change in vivo at 95 µmol/kg (adjuvant arthritis; oral 95 μMol/Kg, read-out: % Reduction in Paw Volume On day 23, Right): -37%
- Body Weight Gain (adjuvant arthritis; oral 95 μMol/Kg): +27 g
- Plasma fibrinogen % change (reduction) (adjuvant arthritis; oral 95 μMol/Kg): -35%

SMILES: CCCCCCCCCOc1cccc(F)c1/C=C/C(C)=C/C=C/C(C)=C/C(=O)O
- Body Weight Gain (adjuvant arthritis; oral 75 μMol/Kg): +46 g

SMILES: CCCCCCCCCOc1ccccc1/C=C/C(C)=C/C=C/C(C)=C/C(=O)O [Compound A, All(E)-9-[2-(nonyloxy)phenyl]-3,7-dimethyl-2,4,6,8-nonatetraenoic acid]
- weight during treatment (in words) [1]: Both male and female rats lost weight
- Mean body weight ([2]; 10 mg.kg^-1 oral, female (F)): -0.2 g
- Mean body weight ([2]; 10 mg.kg^-1 oral, male (M)): 3.3 g
- Mean body weight ([2]; 30 mg.kg^-1 oral, female (F)): 0.5 g
- Mean body weight ([2]; 30 mg.kg^-1 oral, male (M)): 2.8 g
- Mean body weight ([2]; 100 mg.kg^-1 oral, female (F)): -0.2 g
- Mean body weight ([2]; 100 mg.kg^-1 oral, male (M)): 3.3 g
- Tibial Breaking Strain (Right + Left) % change ([3]; 10 mg/kg/day p.o.): -3.4%
- Tibial Breaking Strain (Right + Left) Mean ([3]; 10 mg/kg/day p.o.): 6.5 kg
- Tibial Breaking Strain (Right + Left) % change ([3]; 30 mg/kg/day p.o.): +1.5%
- Tibial Breaking Strain (Right + Left) Mean ([3]; 30 mg/kg/day p.o.): 6.8 kg
- Tibial Breaking Strain (Right + Left) % change ([3]; 100 mg/kg/day p.o.): -0.3%
- Tibial Breaking Strain (Right + Left) Mean ([3]; 100 mg/kg/day p.o.): 6.7 kg

SMILES: CCOC(=O)/C=C(C)/C=C/C=C(C)/C=C/c1c(C)cc(OC)c(C)c1C [Etretinate, etretinate]
- % (cf. arachis oil control) ([2]; 10 mg.kg^-1 oral, 10 doses): 46%
- Mean body weight ([2]; 10 mg.kg^-1 oral, female (F)): -2.0 g
- Mean body weight ([2]; 10 mg.kg^-1 oral, male (M)): -0.8 g
- Joint Mobility (% INC) [4]: 50%
- Lesion Score (% RDN) [4]: 56%
- % reduction of paw swelling, Secondary (left) ([4]; days 8-15): 30%
- % reduction of paw swelling, Secondary (right) ([4]; days 8-15): 67%

SMILES: COc1ccc2c(c1)c(CC(=O)O)c(C)n2C(=O)c1ccc(Cl)cc1 [Indomethacin, reference compound]
- change in vivo at 3 µmol/kg (adjuvant arthritis; read-out: % Reduction in Paw Volume On day 23, Left): -67%
- change in vivo at 3 µmol/kg (adjuvant arthritis; read-out: % Reduction in Paw Volume On day 23, Right): -66%

SMILES: CCCCCCCCCOc1ccccc1/C=C/C(C)=C/C=C/C(C)=C/C(=O)O [drawing 6]
- Body Weight Gain (adjuvant arthritis; oral 76 μMol/Kg): +27 g

SMILES: CC1=C(/C=C/C(C)=C/C=C/C(C)=C\C(=O)O)C(C)(C)CCC1 [reference compound]
- Body Weight Gain (adjuvant arthritis; oral 60 μMol/Kg): -7 g
